Results published in US11160785B2, “Methods and compositions for improving cognitive function” (AgeneBio, Inc., priority 2013, dated 2021).

Key:
MAM-treated rats = details: cited from earlier work
aged-impaired rats [1] = experiment: Radial Arm Maze task, acute brivaracetam or seletracetam (Example 4); details: rat, in vivo
aged-impaired rats [2] = experiment: water maze task after chronic treatment (Example 4); type: in vivo, rat; details: brivaracetam 2 mg/kg/day, osmotic mini-pump
Source text: Another cognitive test that may be used to assess the effects of a test compound on the cognitive impairment of a CNS disorder model animal is the Morris water maze. A water maze is a pool surrounded with a novel set of patterns relative to the maze. […] The subject is trained to locate a submerged escape platform hidden underneath the surface of the pool. During the training trial, a subject is released in the maze (pool) from random starting positions around the perimeter of the pool. The starting position varies from trial to trial. […] After a delay period following the last training trial, a retention test in the absence of the escape platform is given to assess spatial memory. The subject's level of preference for the location of the (now absent) escape platform, as measured by, e.g., the time spent in that location or the number of crossings of that location made by the mouse, indicates better spatial memory, i.e., treatment of cognitive impairment. The preference for the location of the escape platform under different treatment conditions, can then be compared for efficacy of the test compound in treating cognitive impairment associated with CNS disorders.
The radial arm maze experiments used acute administration of seletracetam (0-4 mg/kg), brivaracetam (0-4 mg/kg), or saline vehicle given by intraperitoneal injection (in a volume of 1 ml/kg) 30-40 min prior to test sessions. In the chronic treatment experiment, memory-impaired aged rats were implanted subcutaneously in the intrascapular region with osmotic mini-pumps (ALZET, Durect Corporation, Cupertino, Calif.) with brivaracetam (2 mg/kg/day) or saline vehicle starting two weeks prior to assessment in the water maze.
Rats were trained and tested in a novel water maze environment to assess the effect of drug treatment. The water maze used here was housed in a different building and was surrounded by curtains with a novel set of patterns relative to the maze used for initial assessment of cognitive status. The training protocol consisted of 6 trials per day for 2 days to locate a submerged escape platform. […]

aged-impaired rats (AI) = type: in vivo, rat; details: rat, in vivo
Experimental: FIG. 1 depicts the effects of administering levetiracetam on the spatial memory retention of ten aged-impaired rats (AI) in an eight-arm Radial Arm Maze (RAM) test. Six treatment conditions are employed: vehicle control, levetiracetam (1.25 mg/kg/day), levetiracetam (2.5 mg/kg/day), levetiracetam (5 mg/kg/day), levetiracetam (10 mg/kg/day) and levetiracetam (20 mg/kg/day). In the RAM task used, there is a one-hour delay between presentation of a subset of arms (5 arms available and 3 arms blocked) and completion of the eight-arm win-shift task (eight arms available). Rats are pre-treated 30-40 minutes before daily trials with a one-time drug/control treatment. The number of errors made by the rats during the retention phase is used as a measure of spatial memory retention. Errors are defined as instances when rats enter an arm from which food has already been retrieved in the pre-delay component of the trial or when rats re-visit an arm in the post-delay session that had already been visited. Paired t-tests are used to compare the number of errors between different doses of levetiracetam and vehicle control. […]
A Radial Arm Maze (RAM) behavioral task is one example of a cognitive test, specifically testing spacial memory (Chappell et al. Neuropharmacology 37: 481-487, 1998). The RAM apparatus consists of, e.g., eight equidistantly spaced arms. A maze arm projects from each facet of a center platform. A food well is located at the distal end of each arm. Food is used as a reward. Blocks can be positioned to prevent entry to any arm. Numerous extra maze cues surrounding the apparatus may also be provided. After habituation and training phases, spatial memory of the subjects may be tested in the RAM under control or test compound-treated conditions. As a part of the test, subjects are pretreated before trials with a vehicle control or one of a range of dosages of the test compound. At the beginning of each trial, a subset of the arms of the eight-arm maze is blocked. Subjects are allowed to obtain food on the unblocked arms to which access is permitted during this initial “information phase” of the trial. Subjects are then removed from the maze for a delay period, e.g., a 60 second delay, a 15 minute delay, a one-hour delay, a two-hour delay, a six hour delay, a 24 hour delay, or longer) between the information phase and the subsequent “retention test,” during which the barriers on the maze are removed, thus allowing access to all eight arms. […] The identity and configuration of the blocked arms vary across trials. The number of “errors” the subjects make during the retention test phase is tracked. An error occurs in the trial if the subjects entered an arm from which food had already been retrieved in the pre-delay component of the trial, or if it re-visits an arm in the post-delay session that had already been visited. A fewer number of errors would indicate better spatial memory. The number of errors made by the test subject, under various test compound treatment regimes, can then be compared for efficacy of the test compound in treating cognitive impairment associated with CNS disorders.

C#Cc1ccc2c(c1)C(c1ccccc1F)=N[C@H](C)c1c(C(=O)OCC)ncn1-2 [SH-053-2′F-R-CH3]
number of spontaneously active DA neurons in the ventral tegmental area (VTA) (MAM-treated rats; MAM rats, administered systemically or infused into the ventral HPC, to levels of saline-treated rats): reduces the number of spontaneously active DA neurons
increased locomotor response to amphetamine (MAM-treated rats; MAM-treated rats): reduced
cortical-evoked responses of HPC neurons (MAM-treated rats; saline-treated and MAM-treated animals): diminished cortical-evoked responses

CCC[C@@H]1CC(=O)N([C@@H](CC)C(N)=O)C1 [brivaracetam]
number of errors in the retention phase, effect as a function of dose (aged-impaired rats [1]): significant effect as a function of dose
spatial bias for the target quadrant compared to the other quadrants (probe test) (aged-impaired rats [2]; 14 days, n=3/group, t(2)=10.000, p=0.010): significant spatial bias for the target quadrant
time in the target annulus vs vehicle-treated rats (aged-impaired rats [2]; t(4)=3.109, p=0.036): significantly more time in the target annulus
time in the target quadrant vs vehicle-treated rats (aged-impaired rats [2]; t(4)=3.881, p=0.018): significantly more time in the target quadrant

COc1cc2c(cc1OC)C(=O)C(CC1CCN(Cc3ccccc3)CC1)C2 (stereo not drawn) [donepezil, 2,3-dihydro-5,6-dimethoxy-2-((1-(phenylmethyl)-4-piperidinyl)methyl)-1H-inden-1-one]
average no. of errors±SEM (aged-impaired rats (AI)): 2.81±0.43
average no. of errors±standard error of the mean (SEM) (aged-impaired rats (AI)): 2.88±0.46

CC[C@@H](C(N)=O)N1C[C@H](C=C(F)F)CC1=O [seletracetam]
number of errors in the retention phase, effect as a function of dose (aged-impaired rats [1]): significant effect as a function of dose

NC1=N[C@H](O)[C@H]2[C@H]3O[C@]4(O)O[C@@H]([C@@H](O)[C@@]2(N1)[C@@H]4O)[C@]3(O)CO [tetrodotoxin]
augmented amphetamine-induced locomotor behavior (MAM-treated rats; rat, in vivo): normalized the augmented amphetamine-induced locomotor behavior
elevated DA neuron population activity (MAM-treated rats; rat, in vivo): completely reversed the elevated DA neuron population activity
